Results as given in US10870635B2, “Compounds and their use as BACE1 inhibitors” (ALLGENESIS BIOTHERAPEUTICS, INC., priority 2015, dated 2020).
pIC50: −log10 of the molar value.

Biological target: BACE1 (recombinant β-secretase enzyme) (Homo sapiens (Human), UniProt P56817)
Test: AnaSpec BACE1 fluorescent assay (beta-secretase activity assay)
Format: biochemical
Settings: not given
Procedure: A BACE1 activity assay kit from AnaSpec (Fremont, Calif.) was used to determine the potency of the selected BACE1 inhibitors by AnaSpec BACE1 fluorescent assay. The recombinant β-secretase enzyme was diluted 1:200 in 1× assay buffer (1 part of 1× assay buffer and 1 part of TBS containing 0.1% Tween 20). The enzyme was added in a volume of 40 μl to each well of a black 96-well micro plate.
The BACE1 inhibitors were serially diluted into DMSO from their 10 mM stock concentrations in DMSO. The serially diluted inhibitors were diluted 1:100 into 1× assay buffer in a 96-well polypropylene plate (assay dilution plate). The final concentration of the BACE1 inhibitor tested was 300 nM, 100 nM, 30 nM, 10 nM, 3 nM, 1 nM 0.3 nM, and 0.00 nM. Dose responses for inhibitors were run in duplicate.
A volume of 10 μl of the inhibitor from the assay dilution plate, a control inhibitor LY2886721 or inhibitor vehicle was then added to each well of the black 96-well micro plate containing BACE1.
To each well of the black 96-well micro plate, 50 μl of the β-secretase substrate (Hylite Fluor 488) diluted 1:100 using assay buffer was added. The reagents were mixed gently and the assay plate was placed into a POLARstar fluorescent plate reader with excitation wavelength set at 485 nm and the emission wavelength set at 520 nm. The plate reader was set to take readings every 5 minutes for up to 30 minutes or a 30 minute endpoint reading was used.
An appropriate integrated first-order rate equation was used to fit the data accumulated over a 30-40 minute collection period.

BACE1 (recombinant β-secretase enzyme), sequence (P56817 46-501): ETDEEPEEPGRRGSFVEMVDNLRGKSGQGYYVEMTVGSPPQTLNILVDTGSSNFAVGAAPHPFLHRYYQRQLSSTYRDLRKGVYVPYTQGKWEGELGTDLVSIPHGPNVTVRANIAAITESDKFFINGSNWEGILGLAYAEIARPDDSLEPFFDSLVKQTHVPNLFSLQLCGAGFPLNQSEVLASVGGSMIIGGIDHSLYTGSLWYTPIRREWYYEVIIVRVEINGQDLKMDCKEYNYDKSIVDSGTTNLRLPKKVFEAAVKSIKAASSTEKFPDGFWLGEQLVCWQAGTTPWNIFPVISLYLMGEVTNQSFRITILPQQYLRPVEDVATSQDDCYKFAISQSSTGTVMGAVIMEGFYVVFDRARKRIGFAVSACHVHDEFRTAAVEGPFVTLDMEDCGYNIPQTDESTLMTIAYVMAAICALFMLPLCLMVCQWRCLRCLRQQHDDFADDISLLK

pIC50 | Compound
7.68 | CC#Cc1ccc2sc3cc(F)c([C@]4(C)CC(=O)N(C)C(=N)N4)cc3c2c1 [Example 72, (S)-6-(3-Fluoro-8-(prop-1-yn-1-yl)dibenzo[b,d]thiophen-2-yl)-2-imino-3,6-dimethyltetrahydropyrimidin-4(1H)-one]
7.06 | CC#Cc1ccc2c(c1)-c1cc([C@]3(C)CC(=O)N(C)C(=N)N3)ccc1S2(=O)=O [Example 79, (S)-2-Amino-6-(5,5-dioxido-8-(prop-1-yn-1-yl)dibenzo[b,d]thiophen-2-yl)-3,6-dimethyl-5,6-dihydropyrimidin-4(3H)-one]
7.32 | CC#Cc1ccc2c(c1)c1cc([C@]3(C)CC(=O)N(C)C(=N)N3)ccc1[s+]2[O-] (stereo partly drawn) [Example 80, (6S)-2-Amino-3,6-dimethyl-6-(5-oxido-8-(prop-1-yn-1-yl)dibenzo[b,d]thiophen-2-yl)-5,6-dihydropyrimidin-4(3H)-one]
< 6.52 | CC#Cc1ccc2c(c1)-c1cc([C@]3(C)CC(=O)N(C)C(=N)N3)ccc1C2(C)C [Example 81, (S)-6-(9,9-Dimethyl-6-(prop-1-yn-1-yl)-9H-fluoren-3-yl)-2-imino-3,6-dimethyl-tetrahydropyrimidin-4(1H)-one]
< 6.52 | CC#Cc1ccc2c(c1)-c1cc([C@]3(C)CC(=O)N(C)C(=N)N3)ccc1C2(F)F [Example 82, (S)-6-(9,9-Difluoro-6-(prop-1-yn-1-yl)-9H-fluoren-3-yl)-2-imino-3,6-dimethyltetrahydropyrimidin-4(1H)-one]
< 6.52 | CN1C(=N)N[C@](C)(c2ccc3sc4ccc(C#N)cc4c3c2)CC1=O [Example 85, (S)-8-(2-Imino-1,4-dimethyl-6-oxohexahydropyrimidin-4-yl) dibenzo[b,d]thiophene-2-carbonitrile]
6.66 | COCC#Cc1ccc2sc3ccc([C@]4(C)CC(=O)N(C)C(=N)N4)cc3c2c1 [Example 86, (S)-2-Amino-6-(8-(3-methoxyprop-1-yn-1-yl)dibenzo[b,d]thiophen-2-yl)-3,6-dimethyl-5,6-dihydropyrimidin-4(3H)-one]
7.77 | CN1C(=N)N[C@](C)(c2ccc3sc4ccc(C#CCO)cc4c3c2)CC1=O [Example 87, (S)-2-Amino-6-(8-(3-hydroxyprop-1-yn-1-yl)dibenzo[b,d]thiophen-2-yl)-3,6-dimethyl-5,6-dihydropyrimidin-4(3H)-one]
< 6.52 | CN1C(=N)N[C@](C)(c2ccc3sc4ccc(Br)cc4c3c2)CC1=O [Example 88, (S)-6-(8-Bromodibenzo[b,d]thiophen-2-yl)-2-imino-3,6-dimethyltetrahydro-pyrimidin-4(1H)-one]
< 6.52 | CCCc1ccc2sc3ccc([C@]4(C)CC(=O)N(C)C(=N)N4)cc3c2c1 [Example 89, (S)-2-Imino-3,6-dimethyl-6-(8-propyl-dibenzo[b,d]thiophen-2-yl)tetrahydro-pyrimidin-4(1H)-one]
7.11 | CN1C(=N)N[C@](C)(c2ccc3sc4ccc(C5CC5)cc4c3c2)CC1=O [Example 90, (S)-6-(8-Cyclopropyldibenzo[b,d]thiophen-2-yl)-2-imino-3,6-dimethyl-tetrahydropyrimidin-4(1H)-one]
< 6.52 | CN1C(=N)N[C@](C)(c2ccc3sc4ccc(C(N)=O)cc4c3c2)CC1=O [Example 91, (S)-8-(2-Imino-1,4-dimethyl-6-oxohexahydropyrimidin-4-yl)dibenzo [b,d]thiophene-2-carboxamide]
< 6.52 | CCN(CC)c1ccc2sc3ccc([C@]4(C)CC(=O)N(C)C(=N)N4)cc3c2c1 [Example 92, (S)-6-(8-(Diethylamino)dibenzo[b,d]thiophen-2-yl)-2-imino-3,6-dimethyl-tetrahydropyrimidin-4(1H)-one]
7.09 | CN1C(=N)N[C@](C)(c2ccc3sc4ccc(C(F)(F)F)cc4c3c2)CC1=O [Example 94, (S)-2-Amino-3,6-dimethyl-6-(8-(trifluoromethyl)dibenzo[b,d]thiophen-2-yl)-5,6-di hydropyrimidin-4(3H)-one]
< 6.52 | CC#Cc1ccc2sc3ccc([C@]4(C5CC5)CC(=O)N(C)C(=N)N4)cc3c2c1 [Example 99, (R)-6-Cyclopropyl-2-imino-3-methyl-6-(8-(prop-1-yn-1-yl)dibenzo[b,d]thiophen-2-yl)tetrahydropyrimidin-4(1H)-one]
6.69 | CC#Cc1ccc2sc3ccc([C@@]4(C)NC(=N)OCC4(F)F)cc3c2c1 [Example 100, (R)-5,5-Difluoro-4-methyl-4-(8-(prop-1-yn-1-yl)dibenzo[b,d]thiophen-2-yl)-1,3-oxazinan-2-imine]
< 6.52 | CC#Cc1ccc2sc3ccc([C@]4(C)CS(=O)(=O)N(C)C(=N)N4)cc3c2c1 [Example 104, (R)-3-Imino-2,5-dimethyl-5-(8-(prop-1-yn-1-yl)dibenzo[b,d]thiophen-2-yl)-1,2,4-thiadiazinane 1,1-dioxide]
< 6.52 | CC#Cc1ccc2sc3ccc([C@]4(C)CC(=O)N(CC(F)F)C(=N)N4)cc3c2c1 [Example 105, (S)-3-(2,2-Difluoroethyl)-2-imino-6-methyl-6-(8-(prop-1-yn-1-yl)dibenzo [b,d]thiophen-2-yl)tetrahydropyrimidin-4(1H)-one]
< 6.52 | CC#Cc1ccc2sc3ccc([C@]4(C)CC(=O)N(CCOC)C(=N)N4)cc3c2c1 [Example 106, (S)-2-Imino-3-(2-methoxyethyl)-6-methyl-6-(8-(prop-1-yn-1-yl)dibenzo[b,d]thiophen-2-yl)tetrahydropyrimidin-4(1H)-one]
< 6.52 | CC#Cc1ccc2sc3ccc([C@]4(C)CN(C)C(=O)C(=N)N4)cc3c2c1 [Example 115, (R)-3-Imino-1,5-dimethyl-5-(8-(prop-1-yn-1-yl)dibenzo[b,d]thiophen-2-yl) piperazin-2-one]

Test system: Aβ38, Aβ40 and Aβ42 in CSF
Test: Efficacy study in monkeys: Aβ biomarkers in CSF after single oral administration
Format: in vivo, cynomolgus monkeys
Settings: Monkey CSF
Description: Certain isoforms of amyloid β peptide (AR), such as Aβ338, Aβ340 and Aβ342 have been established as relevant biomarkers that reflect BACE1 activity and have been exploited to establish translational relationships between different cellular assays and animal models. In this efficacy study, mammals were used to assess amyloid β reduction with BACE1 inhibitors. In a clinical setting, plasma and cerebrospinal fluid (CSF) are the accessible compartments to measure soluble amyloid β levels to determine target profile. It is important to analyze plasma and CSF levels which relate to changes in brain amyloid β levels. The concentration of BACE1 inhibitors and their time-dependent reduction of plasma, CSF and brain amyloid β levels were investigated following intravenous and oral administrations of BACE1 inhibitors.
a (ii). Formulation for PO administration: 5% (v/v) PEG400+95% (v/v) of 1% (w/v) methyl cellulose in water (the viscosity of methyl cellulose is 20 g/L, 20° C., cPa·s: 350.0-550.0). The test article solutions were prepared by dissolving the compound in PEG400 followed by the addition of the aqueous solution to the final volume.
For the oral formulation of a BACE1 inhibitor in the monkey efficacy study (at the dose of 20 mg/kg with the concentration of 2 mg/ml)
1) Weighed […] of the selected BACE1 inhibitors into a clean vial;
2) Added 2.826 mL of PEG400 into the tube containing the compound. Then vortexed for 5 min and sonicated for 45 min;
3) Added 53.688 mL of 1% MC in water into the tube containing the compound. Then vortexed for 4 min and sonicated for 4 min; and
4) Adjusted the pH to the physiological value by using 1N NaOH.
Several studies have shown that drug transport into the CNS may be more similar between humans and primates. […] To explore the mechanism of BACE1 compounds, the compounds were tested using this in vivo study. […] The monkey Aβ reduction study usually takes 3 weeks.
The time-course profiles of neurodegeneration biomarkers were determined following single oral administration of the selected BACE1 inhibitors to male cynomolgus monkeys. Blood samples were collected from all animals via the saphenous vein or cephalic vein at 0 (pre-dose), 0.5, 1, 3, 6, 8, 12 and 24 hr post-dose into test tubes containing potassium ethylenediaminotetraacetic acid (K2EDTA). CSF samples were collected via a pre-implanted cannula at the foramina occipital magnum site at 0 (pre-dose), 3, 6, 12 and 24 hr post-dose.
Plasma was separated from the blood by centrifugation at 4° C. and stored at −80° C. until analyzing. The biomarkers of Aβ38, Aβ40 and Aβ42 in CSF were quantified using Meso Scale Discovery (MSD) multiplex electrochemiluminescence immunoassay according to the manufacturer's instructions. The plates were first blocked with 150 μL of Diluent 35 for 1 hour at room temperature with constant shaking at 600 rpm. After washing three times with 200 μL washing buffer, 25 μL of 1× detection antibody solution, plus Aβ40 blocker, 25 μL of seven standards, zero standard and four-fold diluted samples were added to the assay plate. The plate was incubated for 2 hours at room temperature, with constant shaking at 600 rpm. Upon finishing, the plate was washed three times with washing buffer and read in a Sector Imager 6000 (MSD) immediately after addition of 150 μL of 2× Read Buffer T. Aβ concentrations were calculated with reference to the standard curves of each individual peptide and expressed as pg/mL using SoftMax Pro GXP 5.4.4.

Compound | % of maximum Aβ40 inhibition over 24 hours [%]
CC#Cc1ccc2sc3cc(F)c([C@]4(C)CC(=O)N(C)C(=N)N4)cc3c2c1 [Example 72, (S)-6-(3-Fluoro-8-(prop-1-yn-1-yl)dibenzo[b,d]thiophen-2-yl)-2-imino-3,6-dimethyltetrahydropyrimidin-4(1H)-one] | 33.7
CC#Cc1cc2c(cc1F)sc1ccc([C@]3(C)CS(=O)(=O)C(C)(C)C(=N)N3)cc12 [Example 128, (R)-5-(7-Fluoro-8-(prop-1-yn-1-yl)dibenzo[b,d]thiophen-2-yl)-3-imino-2,2,5-trimethylthiomorpholine 1,1-dioxide] | 49.1
CC#Cc1ccc2sc3ccc([C@]4(C)CS(=O)(=O)C5(CC5)C(=N)N4)cc3c2c1 [Example 136, (R)-8-Imino-6-methyl-6-(8-(prop-1-yn-1-yl)dibenzo[b,d]thiophen-2-yl)-4-thia-7-azaspiro[2.5]octane 4,4-dioxide] | 44.5
